Assay results as given in publication PMC12190436, “5-Ene-2-arylaminothiazol-4(5H)-ones Induce Apoptosis in Breast Cancer Cells” (Cells, 2025).
Counter-ions that a name gives are not always drawn. Like-named read-outs stand apart in the source and are kept apart here.

How the values were obtained:
[1] = system: MCF-7 cells; assay: Scratch assay (cell migration); assay type: cell-based, human; conditions: 24 h
Procedure: To assess the effects of the tested compounds on cell migration, the scratch assay method was applied [34]. Cells were seeded in 24-well plates at 2 × 10^5 cells per well in 1 mL medium and incubated overnight. Afterwards, they were left in an incubator at 37 °C for 24 h to attach to the wells. The next day, scratches were made using a 200 µL pipette tip in confluent monolayers. […] Images were obtained by utilizing a Nikon ECLIPSE Ti microscope (Nikon, Tokyo, Japan) after 0, 24, and 48 h. The area of the scratches was measured manually via ImageJ software version 1.54k (Bethesda, MD, USA).
The MCF-7 breast cancer cells were treated for 24 h with the tested compounds in concentrations of 5, 2.5, and 1 µM and doxorubicin hydrochloride in concentrations of 1 and 0.5 µM.

[2] = system: panel of 60 cancer cell lines; assay type: cell-based; conditions: for Mean Growth, % / Range of Growth, % / Positive Cytostatic Effect / Positive Cytotoxic Effect: 10 μM; for Mean Growth, % / Range of Growth, %: one dose; for Positive Cytostatic Effect: number of cell lines with GP from 0 to 50 / total number of cell lines; for Positive Cytotoxic Effect: number of cell lines with GP of <0 / total number of cell lines; for LC50: read-out: MG_MID_60 LC50
[3] = system: HL-60(TB); assay type: cell-based
[4] = system: NCI-H460; assay type: cell-based; conditions: for Growth %: NCI-H460, 10 μM, one dose, 48 h
[5] = system: NCI-H522; assay type: cell-based
[6] = system: HT29; assay type: cell-based
[7] = system: SF-295; assay type: cell-based; conditions: for Growth %: SF-295, 10 μM, one dose, 48 h
[8] = system: MDA-MB-435; assay type: cell-based; conditions: for Growth %: MDA-MB-435, 10 μM, one dose, 48 h
[9] = system: SK-MEL-5; assay type: cell-based
[10] = system: UACC-62; assay type: cell-based
[11] = system: MCF7; assay type: cell-based
[12] = system: MDA-MB-468; assay type: cell-based
[13] = system: caspase 9; assay: FLICA caspase-9 activity, flow cytometry; assay type: cell-based, human; conditions: 5 µM, 24 h, MCF-7
Procedure: (§1) To determine the effects of the novel compounds on the caspases-3/7, caspase-8, caspase-9, and caspase-10 activity, the FLICA Caspase-3/7 Assay Kit, FLICA Caspase-8 Assay Kit, FLICA Caspase-9 Assay Kit, and FLICA Caspase-10 Assay Kit were applied (ImmunoChemistry Technologies, Bloomington, MN, USA). MCF-7 cells were seeded on 6-well plates (1 × 10^5 cells per well) and incubated for 24 h. Afterwards, they were treated for 24 h with tested compounds (Les-6416, Les-6418, Les-6381, Les-6423, and Les-6424) in a concentration of 5 µM and the reference drug doxorubicin hydrochloride in a concentration of 0.5 µM. Next, cells were amassed and washed two times with cold PBS, followed by resuspension in an Apoptosis Wash Buffer to a final concentration of 5 × 10^5 cells/mL. Afterwards, 290 µL of the prepared cell suspensions were transferred into tubes, followed by the addition of 10 µL of FLICA solution, prepared immediately before use, to each sample and incubated for an hour at 37 °C. Next, cells were washed two times with 2 mL of Apoptosis Wash Buffer, provided in the kit, centrifuged, and resuspended in 300 µL of the buffer. Prepared samples were assessed by a BD FACSCanto II flow cytometer (Becton Dickinson Biosciences, San Jose, CA, USA). For each sample, 1 × 10^4 events were analyzed. […]

[14] = system: caspase 10; assay: FLICA caspase-10 activity, flow cytometry; assay type: cell-based, human; conditions: 5 µM, 24 h, MCF-7
Procedure: as §1

[15] = system: Bax; assay: Bax, anti-Bax FITC antibody flow cytometry; assay type: cell-based, human; conditions: 5 µM, 24 h, MCF-7
Procedure: To evaluate the effects of the tested compounds on the concentration of Bax protein, anti-Bax FITC-conjugated antibody was applied. MCF-7 cells were seeded on 6-well plates at 5 × 10^6 cells per well, followed by incubation for 24 h. Afterwards, the cells were treated for 24 h with new 4-thiazolidinone derivatives (Les-6416, Les-6418, Les-6381, Les-6423, and Les-6424) at a concentration of 5 µM. Then, cells were collected and incubated with 4% formaldehyde for 15 min at RT. Next, cells were washed with an excess amount of PBS, followed by permeabilization by adding ice-cold 90% methanol and incubation for 60 min in an ice bath. Cells were again washed with an excess of PBS and resuspended in 100 µL of diluted primary antibody, prepared in antibody dilution buffer at a 1:100 dilution, and incubated for 60 min at room temperature in the dark. Cells were washed, resuspended in 0.3 mL, and transferred to the tubes for immediate assessment using a BD FACSCanto II flow cytometer (Becton Dickinson Biosciences, San Jose, CA, USA). For each sample, 1 × 10^4 events were analyzed. The results were analyzed using FACSDiva software Version 6.1.3 (BD Biosciences Systems, San Jose, CA, USA).
Another important protein for the intrinsic pathway of apoptosis is a pro-apoptotic member of the Bcl-2 family-Bax. […]

In the case of COc1cccc2c1C(=O)c1c(O)c3c(c(O)c1C2=O)C[C@@](O)(C(=O)CO)C[C@@H]3O[C@H]1C[C@H](N)[C@H](O)[C@H](C)O1 [DOX, Doxorubicin hydrochloride, reference compound], the “Closure of the gap area” value ([1]; 0.5 µM) is reported as 25.50 ± 20.51%.

In the case of COc1cc(NC2=NC(=O)C(=Cc3ccc4cc[nH]c4c3)S2)cc(OC)c1OC [Les-6416, 5-((1H-Indol-6-yl)methylene)-2-((3,4,5-trimethoxyphenyl)amino)thiazol-4(5H)-one], the “Mean Growth, %” value ([2]; 48 h) is reported as 39.56%, the “Range of Growth, %” value ([2]; 48 h) is reported as −33.26–97.05% and the “Positive Cytostatic Effect” value [2] is reported as 38/58. For the same compound, the “Positive Cytotoxic Effect” value [2] was 2/58, the Growth % ([3]; HL60(TB), 10 μM, one dose, 48 h) was 15.10% and the Growth % [4] was 17.93%. The Growth % ([5]; NCI-H522, 10 μM, one dose, 48 h) was 3.77%, the Growth % ([6]; HT29, 10 μM, one dose, 48 h) was 7.66% and the Growth % [7] was 5.01%. The Growth % [8] was −33.26%, the Growth % ([9]; SK-Mel-5, 10 μM, one dose, 48 h) was −4.74% and the Growth % ([10]; UACC-62, 10 μM, one dose, 48 h) was 18.03%. The Growth % ([11]; MCF-7, 10 μM, one dose, 48 h) was 6.76%, the Growth % ([12]; MDA-MB-468, 10 μM, one dose, 48 h) was 1.33% and the “Closure of the gap area” value ([1]; 1 µM) was 21.00 ± 7.07%. The “cells with active caspase 9” value [13] was 41.90 ± 6.89%, the “cells with active caspase 10” value [14] was 43.23 ± 2.85% and the “Bax positive cells, cell population” value [15] was 12.27 ± 0.45%.

In the case of COc1cc(NC2=NC(=O)C(=Cc3c[nH]c4ccccc34)S2)cc(OC)c1OC [Les-6418, 5-((1H-Indol-3-yl)methylene)-2-((3,4,5-trimethoxyphenyl)amino)thiazol-4(5H)-one], the “Mean Growth, %” value ([2]; 48 h) is reported as −43.64%, the “Range of Growth, %” value ([2]; 48 h) is reported as −88.00–14.92% and the “Positive Cytostatic Effect” value [2] is reported as 7/59. For the same compound, the “Positive Cytotoxic Effect” value [2] was 52/59, the LC50 ([2]; Homo sapiens, 48 h, full panel mean, 48 h) was 56.6 µM and the GI50 ([2]; Homo sapiens, CCRF-CEM, HL-60(TB), SR, NCI-H522, HT29, KM12, MDA-MB-435, OVCAR-3, ACHN, BT-549, MDA-MB-468, read-out: GI50, submicromolar concentration range) was 0.28 to 0.98 µM. The GI50 ([2]; Homo sapiens, full panel mean, 48 h, read-out: MG_MID_60 GI50) was 3.27 µM, the “MG_MID_60 TGI” value ([2]; full panel mean, 48 h) was 18.6 µM and the LC50 ([2]; full panel mean, 48 h) was 56.5 µM. The “SI against certain types of cancer” value ([2]; subpanel selectivity indices at studied dose–response parameters) was 0.71–1.60, the TGI ([3]; HL-60(TB), 48 h) was 11.1 µM and the “SI (TGI)” value ([3]; HL-60(TB), MG_MID_60/value) was 1.68. The GI50 ([3]; Homo sapiens, HL-60(TB), 48 h) was 0.855 µM, the CC50 ([3]; Homo sapiens, HL-60(TB), 48 h, read-out: LC50 (the source's name)) was greater than 100 µM and the GI50 ([4]; Homo sapiens, NCI-H460, 48 h) was 2.1 µM. It also gave an LC50 (50% lethal concentration) ([4]; Homo sapiens, NCI-H460, 48 h) of 92 µM, a Growth % [4] of −77.59% and a TGI ([4]; NCI-H460, 48 h) of 14.3 µM. The “SI (TGI)” value ([4]; NCI-H460, MG_MID_60/value) was 1.30, the GI50 ([5]; Homo sapiens, NCI-H522, 48 h) was 0.403 µM and the CC50 ([5]; Homo sapiens, NCI-H522, 48 h, read-out: LC50 (the source's name)) was 46 µM. The TGI ([5]; NCI-H522, 48 h) was 5.56 µM, the “SI (TGI)” value ([5]; NCI-H522, MG_MID_60/value) was 3.34 and the TGI ([6]; HT29, 48 h) was 10.1 µM. The “SI (TGI)” value ([6]; HT29, MG_MID_60/value) was 1.84, the GI50 ([6]; Homo sapiens, HT-29, HT29, 48 h) was 0.923 µM and the CC50 ([6]; Homo sapiens, HT-29, HT29, 48 h, read-out: LC50 (the source's name)) was 47.6 µM. It also gave a GI50 ([7]; Homo sapiens, SF-295, 48 h) of 2.27 µM, a CC50 ([7]; Homo sapiens, SF-295, 48 h, read-out: LC50 (the source's name)) of 40.9 µM and a Growth % [7] of −73.38%. The TGI ([7]; SF-295, 48 h) was 13.4 µM, the “SI (TGI)” value ([7]; SF-295, MG_MID_60/value) was 1.39 and the GI50 ([8]; Homo sapiens, MDA-MB-435, 48 h) was 0.28 µM. It also gave an LC50 ([8]; Homo sapiens, MDA-MB-435, 48 h) of 14.2 µM, a Growth % [8] of −77.11% and a TGI ([8]; MDA-MB-435, 48 h) of 0.940 µM. The “SI (TGI)” value ([8]; MDA-MB-435, MG_MID_60/value) was 19.8, the GI50 ([9]; Homo sapiens, SK-MEL-5, 48 h) was 2.46 µM and the CC50 ([9]; Homo sapiens, SK-MEL-5, 48 h, read-out: LC50 (the source's name)) was 39.1 µM. For the same compound, the TGI ([9]; SK-MEL-5, 48 h) was 14.1 µM, the “SI (TGI)” value ([9]; SK-MEL-5, MG_MID_60/value) was 1.32 and the GI50 ([10]; Homo sapiens, UACC-62, 48 h) was 4.75 µM. The CC50 ([10]; Homo sapiens, UACC-62, 48 h, read-out: LC50 (the source's name)) was 48.3 µM, the TGI ([10]; UACC-62, 48 h) was 19.7 µM and the “SI (TGI)” value ([10]; UACC-62, MG_MID_60/value) was 0.94. The GI50 ([11]; Homo sapiens, MCF7, 48 h) was 1.79 µM, the CC50 ([11]; Homo sapiens, MCF7, 48 h, read-out: LC50 (the source's name)) was 44.7 µM and the TGI ([11]; MCF7, 48 h) was 11.9 µM. For the same compound, the “SI (TGI)” value ([11]; MCF7, MG_MID_60/value) was 1.56, the GI50 ([12]; Homo sapiens, MDA-MB-468, 48 h) was 0.657 µM and the CC50 ([12]; Homo sapiens, MDA-MB-468, 48 h, read-out: LC50 (the source's name)) was 34.3 µM. For the same compound, the TGI ([12]; MDA-MB-468, 48 h) was 6.23 µM, the “SI (TGI)” value ([12]; MDA-MB-468, MG_MID_60/value) was 2.99 and the “Bax positive cells, cell population” value [15] was 8.27 ± 0.58%.

For COc1cc(NC2=NC(=O)C(=Cc3cccs3)S2)cc(OC)c1OC [Les-6423, 5-(Thiophen-2-ylmethylene)-2-((3,4,5-trimethoxyphenyl)amino)thiazol-4(5H)-one], the “cells with active caspase 9” value [13] was “did not show any effect” and the “cells with active caspase 10” value [14] was “did not show any effect”.
